One assay concerns the target T1, MC1R (Homo sapiens, UniProt Q01726).
T1 construct: human melanocyte culture coded 1753 that expressed functional MC1R; endogenous in cells; host or cells: human melanocyte culture coded 1753
As to the kind of experiment: Effects on cAMP in human melanocyte culture 1753 (radioimmunoassay). It is filed as cell-based. The protocol:
The compound with formula structure Ac-Nle-Glu-His-D-Phe-homoArg-Trp-NH2 of the invention was tested using human melanocyte culture coded 1753 that expressed functional MC1R. The melanocytes were plated at a density of 0.3*10^6 cells/well. After 48 hours, the melanocytes were treated with different compound concentrations (10^−12 to 10^−7 M) for 1 hour. A control without compound was included in the test. […] The reaction was stopped by addition of 50 μl 1 N HCl and the supernatant in each well was used to measure cAMP using a radioimmunoassay as described by Suzuki 1996 (Suzuki I, Cone R D, Im S, Nordlund J J, Abdel-Malek Z: “Binding of melanotropic hormones to the MC1 receptor on human melanocytes stimulates proliferation and melanogenesis”. Endocrinology 137: 1627-1633, 1996). Duplicate samples from each well were assayed with triplicate wells included in each group. The mean of 6 cAMP measurements per group was expressed as % of the control group. Statistical analysis was carried out using ANOVA followed by Newman Kuels test. In some cases, unpaired t-test was used.

The subject of another assay is tyrosinase. As to the kind of experiment: Effects on tyrosinase activity in human melanocyte culture 1750 (3H-labeled tyrosine). It is filed as cell-based. The protocol:
The compound with formula structure Ac-Nle-Glu-His-D-Phe-homoArg-Trp-NH2 of the invention was tested using human melanocyte culture coded 1750 that expressed functional MC1R. The melanocytes were plated at a density of 0.3*10^6 cells onto 60 mm dishes (triplicate dishes/group). After 48 hours, the melanocytes were treated every other day for a total of six days with different doses (10^−12 M to 10^−7 M) of the compound. A control without compound was included in the test. […] On treatment day 5, ^3H-labeled tyrosine, the substrate for tyrosinase, was added and 24 hours later, the supernatant was saved to be assayed for tyrosinase activity as described by Suzuki et al (see example 2). Duplicate samples from each were assayed, with triplicate dishes included in each group. Cell number in each dish was counted, and tyrosinase activity was expressed as dpm/10^6 cells and as % of the control. Statistical analysis was carried out using ANOVA followed by Newman Kuels test.
It will be understood that this tyrosinase activation test relates to a late event after MC1R activation, compared to the earlier secondary messenger effect of the above cAMP test. As pointed out above, activity of tyrosinase requires days of treatment.

Where [1] appears, read: concentrations from 10^−10 M to 10^−7M.

Non-standard residues stand in square brackets, D forms with d. hArg = N=C(N)NCCCC[C@H](N)C(=O)O; Nle = CCCC[C@H](N)C(=O)O

T1 sequence (Q01726 whole entry): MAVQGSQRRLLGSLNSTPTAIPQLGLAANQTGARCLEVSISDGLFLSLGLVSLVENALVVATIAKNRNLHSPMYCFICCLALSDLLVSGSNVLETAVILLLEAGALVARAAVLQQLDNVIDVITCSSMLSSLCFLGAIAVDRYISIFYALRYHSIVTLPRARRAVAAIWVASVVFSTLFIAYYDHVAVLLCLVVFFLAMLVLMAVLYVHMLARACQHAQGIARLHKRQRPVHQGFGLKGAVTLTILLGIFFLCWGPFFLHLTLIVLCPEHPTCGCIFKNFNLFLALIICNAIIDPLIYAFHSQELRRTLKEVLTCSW

With “Ac-[Nle]EH[dF][hArg]W-NH2 [compound of the invention]”, the “cAMP, highest efficacy, expressed as % of the control group” value at MC1R (10^−7M, 1 hour treatment, human melanocyte culture 1753 expressing functional MC1R) is 216%. The “cAMP results statistically different compared to the control (p<0.05)” value on MC1R (setting [1]) is listed as “statistically different compared to the control”. Also, the “tyrosinase activity, highest efficacy, % of the control” value in the assay on tyrosinase (10^−8 M, six days of treatment, human melanocyte culture 1750 expressing functional MC1R) turned out to be 227%. For the same substance, in the assay with tyrosinase (10^−9 M, six days of treatment, human melanocyte culture 1750 expressing functional MC1R), the “tyrosinase activity, efficacy, % of the control” value came to 198%. In the assay on tyrosinase (setting [1]), the “tyrosinase activity results statistically different compared to the control (p<0.05)” value is listed as “statistically different compared to the control”.

The values above are taken from US20180086789A1, “PHARMACEUTICAL COMPOUND” (VALLAURIX PTE. LTD., priority 2015, published 2018).
